Entries after “also recorded” stand apart in the source; their conditions may differ.
Legend:
[1] = system: EGFP reporter vectors under the transcriptional control of the ribosomal protein RPS30, RPS23I-M, or RPS30I-M1 sequences; assay: EGFP reporter under ribosomal protein promoters with control stable 3′UTR, treated with inducers (FIG. 1B); assay type: cell-based, human; details: HEK293 cells, okadaic acid 100 nM or TNF-α 10 ng/ml, added about 20 hr after transfection
Protocol: (§1) B HEK293 cells in 96-well plates were transfected with 150 ng of EGFP reporter vectors that are under the transcriptional control of the ribosomal protein RPS30, RPS23I-M, or RPS30I-M1 sequences. The EGFP reporter contains control stable 3′UTR. After approximately 20 hr, the cells were treated with the following compounds: okadaic acid (100 nM) or TNF-α (10 ng/ml) to induce post-transcriptional induction, if any. High resolution images were obtained automatically by BD high-content imager. Quantitation was performed with our in-house ProXcell imaging algorithm.

[2] = system: control RPS30-3′UTR reporter; assay: RPS30I-M1 EGFP reporter with control stable 3′UTR, post-transcriptional induction (FIG. 3); assay type: cell-based, human; details: HEK293 cells, okadaic acid 100 nM
Protocol: as §1, with “Selective for post-transcriptional regulation in the RPS30I-M linked-reporter system. HEK293” for “B HEK293”, “protein RPS30I-M1.” for “protein RPS30, RPS23I-M, or RPS30I-M1 sequences.”, “contains either” for “contains”, “stable 3′UTR or 3′UTR which contain 200 bases of IL-8 3′UTR sequences known to contain mRNA destabilization elements, AU-rich elements.” for “stable 3′UTR.”, “or IL-α (3” for “or TNF-α (10”
The RPS30I-M1 with control 3′UTR, RPS30I-M1 with IL-8 3′UTR, and RPS30I-M1 with TNF-α 3′UTR vectors were tested for use to assess post-transcriptional regulation. Transfected cells were stimulated with the following compounds, IL-α or okadaic acid. Any compound or modulators such as protein, expression vector, or small inhibitory RNA, or any other RNA vector can be tested for the post-transcriptional effects, i.e., induction or repression.

[3] = system: RPS30I-M1-IL-8 3′UTR reporter; assay: RPS30I-M1 EGFP reporter with IL-8 3′UTR (AU-rich elements), post-transcriptional induction (FIG. 3); assay type: cell-based, human; details: HEK293 cells, 3′UTR with 200 bases of IL-8 3′UTR; okadaic acid 100 nM
Protocol: as §1, with “Selective for post-transcriptional regulation in the RPS30I-M linked-reporter system. HEK293” for “B HEK293”, “protein RPS30I-M1.” for “protein RPS30, RPS23I-M, or RPS30I-M1 sequences.”, “contains either” for “contains”, “stable 3′UTR or 3′UTR which contain 200 bases of IL-8 3′UTR sequences known to contain mRNA destabilization elements, AU-rich elements.” for “stable 3′UTR.”, “or IL-α (3” for “or TNF-α (10”
The AU-rich regions, approximately 200 bases, of TNF-α and IL-8 3′UTR were cloned into the vector. Briefly, a 237 bp region (972-1209 nt: NM_000584, SEQ ID NO. 9) that belongs to the 1250 bp IL-8 3′UTR or 250 bases from TNF-α 3′UTR: (1200-1450 bp, NM_000594, SEQ ID NO. 10) were amplified by RT-PCR using specific primers that contains BamH1 and XbaI restriction sites. The PCR products were cut by BamH I and Xba I sequentially and followed by phenol extraction and ethanol precipitation. The purified cut PCR products were ligated into the EGFP expression vector that has bovine growth hormone 3′UTR that has BamH1 and XbaI sites. […]

[4] = system: EGFP reporter vector under the transcriptional control of the SV40 promoter; assay: EGFP reporter under SV40 promoter, treated with inducers (FIG. 2); assay type: cell-based; details: HEK293 cells, TNF-α 10 ng/ml
Protocol: as §1, with “HEK293” for “B HEK293”, “CMV” for “ribosomal protein RPS30, RPS23I-M,”, “SV40 promoter.” for “RPS30I-M1 sequences. The EGFP reporter contains control stable 3′UTR.”, “induction,” for “induction, if any.”, “with” for “with our in-house”

[5] = system: EGFP reporter vector under the transcriptional control of the CMV promoter; assay: EGFP reporter under CMV promoter, treated with inducers (FIG. 2); assay type: cell-based; details: HEK293 cells, TNF-α 10 ng/ml
Protocol: as §1, with “HEK293” for “B HEK293”, “CMV” for “ribosomal protein RPS30, RPS23I-M,”, “SV40 promoter.” for “RPS30I-M1 sequences. The EGFP reporter contains control stable 3′UTR.”, “induction,” for “induction, if any.”, “with” for “with our in-house”

| Compound | induction of EGFP reporter fluorescence [1] | induction of EGFP reporter fluorescence ([1]; listed as okdadaic acid) | post-transcriptional induction of EGFP reporter [2] | post-transcriptional induction of EGFP reporter [3] | transcriptional induction of EGFP reporter [4] | transcriptional induction of EGFP reporter [5] |
| --- | --- | --- | --- | --- | --- | --- |
| C=C1[C@@H](O)[C@@H]2O[C@]3(CC[C@H](/C=C/[C@@H](C)[C@@H]4CC(C)=C[C@@]5(O[C@H](C[C@@](C)(O)C(=O)O)CC[C@H]5O)O4)O3)CC[C@H]2O[C@@H]1[C@@H](O)C[C@H](C)[C@H]1O[C@@]2(CCCCO2)CC[C@H]1C [okadaic acid] | not transcriptionally inducible | no induction | not | significantly increases | – | – |
| TNF-α | no induction; also recorded: not transcriptionally inducible | – | – | – | respond to transcriptional induction | respond to transcriptional induction |
